PubChem BioAssay (NCI)
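Compound exposure: 48 hours, 5 concentrations, 96-well plates. GI50: concentration for 50% inhibition of growth. TGI marks complete inhibition of growth.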

Assays:
Assay in all cases: NCI tumour cell line growth inhibition, 48 h
[1] = test system: OVCAR-3 ovarian
[2] = test system: KM12 colon
[3] = test system: SK-OV-3 ovarian
[4] = test system: HOP-62 NSCLC
[5] = test system: NCI-H226 lung
[6] = test system: PC-3 prostate
[7] = test system: HS 578T breast
[8] = test system: SNB-19 CNS
[9] = test system: SN12C renal
[10] = test system: SK-MEL-2 melanoma

Structure (SMILES)	TGI [1]	TGI [2]	TGI [3]	TGI [4]	TGI [5]	TGI [6]	TGI [7]	TGI [8]	TGI [9]	TGI [10]	GI50 [1]	GI50 [10]	GI50 [2]	GI50 [3]	GI50 [4]	GI50 [5]	GI50 [6]	GI50 [7]	GI50 [8]	GI50 [9]
COc1ccc(-c2ccc(C(=O)C=P(c3ccccc3)(c3ccccc3)c3ccccc3)cc2)cc1	20.1 µM	36.6 µM	34.9 µM	43.9 µM	27.7 µM	49 µM	67.6 µM	> 100 µM	28.5 µM											
O=[N+]([O-])c1ccc(-n2nc3ccc4nonc4c3n2)cc1	> 100 µM	> 100 µM	56.5 µM	44.7 µM	65.3 µM	> 100 µM	50.1 µM	> 100 µM	> 100 µM	> 100 µM										
C=C(NC(=O)C(=C)NC(=O)c1ccc2c(n1)-c1coc(n1)C(=C)NC(=O)C(=C)NC(=O)c1nc(oc1C)C(=C)NC(=O)C(C(C)(C)O)NC(=O)C(=C)NC(=O)c1coc(n1)/C(=C/C)NC(=O)[C@H]([C@@H](C)O)NC(=O)c1csc-2n1)C(N)=O (stereo partly drawn)	> 87.5 µM	> 87.5 µM		> 87.5 µM	> 87.5 µM	> 87.5 µM	> 87.5 µM	> 87.5 µM	> 87.5 µM	> 87.5 µM										
C=CCC(O[Si](C)(C)C(C)(C)C)c1cc(O[Si](C)(C)C(C)(C)C)ccc1OC (stereo not drawn)	> 100 µM	> 100 µM	> 96.4 µM	> 100 µM	> 100 µM			> 100 µM	> 100 µM	> 100 µM										
O=P1(N(CCCl)CCCl)Oc2ccc(Cl)cc2C(C(Cl)(Cl)Cl)c2cc(Cl)ccc2O1 (stereo not drawn)	24.3 µM	33.4 µM	> 100 µM	27.9 µM	50.9 µM	> 100 µM	41 µM		57.6 µM	47.3 µM										
COC1/C=C/C(C)C(O)CC(O)/C=C/C(C)C(C(C)C(OC)C(C)CCC(=O)C(C)C(C/C=C/N(C)C=O)OC)OC(=O)/C=C/C=C(\C)CC(OC)CC2=CC(=O)O[C@@H](C(C)C(OC)C1)[C@H]2O (stereo partly drawn)	0.0106 µM	1.15 µM	0.108 µM	0.0257 µM		0.131 µM	0.0493 µM	0.155 µM	1.78 µM											
O=c1[nH]c(=O)n(COC(CO)CO)cc1-c1ccccc1	> 100 µM	> 100 µM	> 100 µM	> 100 µM		> 100 µM	> 100 µM	> 100 µM	> 100 µM	> 100 µM										
COC(=O)[C@]1(c2cc3ccccc3n2S(=O)(=O)c2ccccc2)CC2CN(C(=O)OCc3ccccc3)C1C1OC(C)(C)OC21 (stereo partly drawn)	> 100 µM	> 100 µM	> 100 µM	> 100 µM	> 100 µM	> 100 µM	> 100 µM		> 100 µM	> 100 µM										
CCC1(O)CC(CCN(Cc2ccccc2)C(=O)OCc2ccccc2)C(OCc2ccccc2)C1O (stereo not drawn)	26.8 µM	27.3 µM	34.6 µM	29.6 µM	25.3 µM	23.2 µM		31.6 µM	82 µM	28.7 µM										
Nc1[nH]c(=O)nc2c1ncn2C1OC(CO)C(O)C1O (stereo not drawn)	> 100 µM	> 100 µM	> 100 µM	> 100 µM	> 100 µM	60.2 µM	> 100 µM	> 100 µM	> 100 µM	> 100 µM										
CCCCCC[C@H]([C@H](C)O)n1cnc2c(N)ncnc21	> 100 µM	> 100 µM	> 100 µM	> 100 µM	> 100 µM	> 100 µM	> 100 µM	> 100 µM	> 100 µM	> 100 µM										
Cc1ccccc1NC(=O)O/N=C(\Cl)C(C)C	9.35 µM	36.2 µM	32.8 µM	33.4 µM	30.7 µM	31 µM	58.5 µM	41.9 µM	3.2 µM	32.6 µM										
CCOC(=O)NC(=S)N(CC(=O)c1cc(OC)c(OC)c(OC)c1)c1ccc(Cl)cc1	> 100 µM	> 100 µM	> 100 µM	> 100 µM	> 100 µM	> 100 µM	> 100 µM	> 100 µM	> 100 µM	> 100 µM	> 100 µM	47.4 µM	> 100 µM	> 100 µM	> 100 µM	> 100 µM	72.2 µM	96.4 µM	> 100 µM	> 100 µM
CCN1CC2(C)CCC(OC)C34C5CC6CCC(O)(C5C(=O)O6)C(C(O)C23)C14 (stereo not drawn)	> 100 µM	> 100 µM	> 100 µM	> 100 µM		> 100 µM	> 100 µM	> 100 µM		> 100 µM										
Nc1c(C(=O)c2ccc(Cl)c(Cl)c2)[nH]c(NCc2ccccc2)c1C(=S)Nc1ccccc1	38.5 µM	10.5 µM	32.2 µM	34.7 µM	31.4 µM	30.5 µM		37.7 µM	29.2 µM	25.9 µM										
CC1=C(CO)C(=O)OC(C(C)C2CCC3C4CC5OC56C(O)C(N5CC5)=CC(=O)C6(C)C4CCC23C)C1 (stereo not drawn)	11.7 µM	5.01 µM		40.7 µM	29.1 µM			9.56 µM	19.5 µM	18.1 µM										
N#CCCC(C=O)(CCC#N)CCC#N	> 100 µM	> 100 µM	> 100 µM		> 100 µM	> 100 µM	> 100 µM	> 100 µM	> 100 µM	> 100 µM										
C[s+]1c2ccccc2c2ccccc21	> 100 µM	> 100 µM		> 100 µM	> 100 µM			> 100 µM	> 100 µM	> 100 µM										
O=C1c2cc3c(cc2-c2c1c1cc(F)c(F)cc1c(=O)n2CCCn1ccnc1)OCO3	1.52 µM	14.7 µM		0.0477 µM	0.115 µM	> 100 µM	> 100 µM	> 100 µM		0.93 µM	0.116 µM	0.256 µM	0.0469 µM		< 0.01 µM	0.0248 µM	0.124 µM	1.89 µM	< 0.01 µM	
CCOc1ccc2nc(NC(=O)C(=O)C(C(=O)c3ccccc3F)C3OC(=O)c4ccccc43)sc2c1 (stereo not drawn)		19 µM	55.1 µM	> 100 µM	27.5 µM			40.2 µM	54.1 µM	39.1 µM										
